# Structures can show the parent of a compound that is named as a salt.
# Tested on: blood, cerebellum, spinal cord
# Assay: Transcriptional profiling, chronic dosing, EAE mice: blood, cerebellum, spinal cord
# Assay type: in vivo
# Details: for Number of differentially expressed genes identified: Cerebellum / Number of differentially expressed genes identified: Spinal Cord / Number of differentially expressed genes identified: Whole blood: EAE, Chronic Dosing
# Protocol: 2011 March 134(Pt3): 678-92. […] FIG. 17 depicts exemplary immunophenotyping panels used to analyze various immune cell populations (e.g., T cells, T regulatory cells, NK cells, B cells, myeloid cells). […] Animals were exposed to CO2 and whole blood collected via cardiac puncture. Two 100 μl aliquots of whole blood were collected in 1.5 mL microcentrifuge tubes and snap frozen in liquid nitrogen. Peripheral (liver, spleen, kidney and jejunum) and CNS brain (cerebellum, hippocampus, striatum and cortex) tissues were harvested and snap frozen in liquid nitrogen, with special care taken to collect tissues of similar size and from the same location. All samples were stored at -80° C. until RNA extraction was conducted. For RNA preparation, frozen tissues were placed in 2 mL RNAse-free 96-well blocks with 1.5 mL QIAzol Lysis Reagent (QIAgen) and a 3.2 mm stainless steel bead (BioSpec Products, Bartlesville, Okla.). Tissues were disrupted for four cycles of 45 seconds in a Mini-Beadbeater (Biospec Products). RNA was extracted in chloroform and the aqueous phase was mixed with an equal volume of 70% ethanol. Extracted RNA was applied to RNeasy 96 plates and purified by the spin method according to the manufacturer's protocol (RNeasy 96 Universal Tissue Protocol, QIAgen, Hilden Germany). 50 ul of snap frozen mouse blood was re-suspended in lysis buffer with proteinase K and arrayed into deep-well plates for automated RNA extraction. RNA extractions were completed on […] (Beckman Coulter, Indianapolis, Ind.) using Agencourt RNAdvance Blood kit (Part number A35604) according to the manufacturer's specifications. RNA integrity was assessed using the HT RNA reagent kit (Part number 760410, Caliper Life Sciences, Hopkinton, Mass.) using a LabChip GX (PerkinElmer, Waltham, Mass.). RNA samples with a RQS score of >8.0 were considered high quality for downstream microarray processing. […] Washing and staining of the hybridized arrays were completed as described in the GeneChip Expression analysis technical manual for HT plate arrays using the Genechip® Array Station (Affymetrix, Santa Clara, Calif.) with modifications as described in […] et al. The processed GeneChip® plate arrays were scanned using GeneTitan scanner (Affymetrix, Santa Clara, Calif.). Affymetrix scans were subject to quality control (QC) measures. These tests included a visual inspection of the distribution of raw signal intensities and an assessment of RNA degradation, relative log expression (RLE), and normalized unscaled standard error (NUSE). All sample scans that passed these QC metrics were included in the analysis. […] Nucleic Acids Res 2003; 31:e15; Li C, et al. Genome Biol 2001; 2:[…]0032). […] Stat Appl Genet Mol Biol 2004; 3:Article3). […] Springer Science+Business Media 2005).
# [1] = 100 mpk DMF-vs-90 mpk MMF, 7 h after last dosing
# [2] = 100 mpk DMF-vs-90 mpk MMF, 12 h after last dosing
# [3] = 100 mpk DMF-vs-Vehicle, 7 h after last dosing
# [4] = 100 mpk DMF-vs-Vehicle, 12 h after last dosing
# [5] = spinal cord, 100DMF-vs-90MMF, 7 h
# [6] = spinal cord, 100DMF-vs-90MMF, 12 h
# [7] = spinal cord, 100DMF-vs-Veh, 7 h
# [8] = spinal cord, 100DMF-vs-Veh, 12 h
# [9] = tissue not given, 100DMF-vs-90MMF, 7 h
# [10] = tissue not given, 100DMF-vs-90MMF, 12 h
# [11] = 90 mpk MMF-vs-Vehicle, 7 h after last dosing
# [12] = 90 mpk MMF-vs-Vehicle, 12 h after last dosing
# [13] = spinal cord, 100MMF-vs-Veh, 7 h
# [14] = spinal cord, 100MMF-vs-Veh, 12 h
# [15] = tissue not given, 100MMF-vs-Veh, 12 h
structure (smiles),measurement,setting,value
"COC(=O)/C=C/C(=O)OC [DMF, dimethyl fumarate]",Number of differentially expressed genes identified: Cerebellum,[1],2
same,Number of differentially expressed genes identified: Spinal Cord,[1],2
same,Number of differentially expressed genes identified: Whole blood,[1],0
same,Number of differentially expressed genes identified: Cerebellum,[2],3
same,Number of differentially expressed genes identified: Spinal Cord,[2],40
same,Number of differentially expressed genes identified: Whole blood,[2],0
same,Number of differentially expressed genes identified: Cerebellum,[3],0
same,Number of differentially expressed genes identified: Spinal Cord,[3],3
same,Number of differentially expressed genes identified: Whole blood,[3],8
same,Number of differentially expressed genes identified: Cerebellum,[4],0
same,Number of differentially expressed genes identified: Spinal Cord,[4],3
same,Number of differentially expressed genes identified: Whole blood,[4],8
same,FC 2900055J20Rik (1430675_PM_at),[5],−1.58
same,FC LOC100047123 (1446154_PM_at),[5],−1.56
same,FC 1423020_PM_at (no gene symbol),[6],1.59
same,FC 1440425_PM_at (no gene symbol),[6],1.57
same,FC 1440449_PM_at (no gene symbol),[6],1.61
same,FC 1441606_PM_at (no gene symbol),[6],1.57
same,FC 1442650_PM_at (no gene symbol),[6],1.92
same,FC 1442813_PM_at (no gene symbol),[6],2.21
same,FC 1443212_PM_at (no gene symbol),[6],1.82
same,FC 1443237_PM_at (no gene symbol),[6],1.59
same,FC 1444001_PM_at (no gene symbol),[6],1.58
same,FC 1446481_PM_at (no gene symbol),[6],1.59
same,FC 1447354_PM_at (no gene symbol),[6],1.54
same,FC 1458147_PM_at (no gene symbol),[6],1.60
same,FC 1458697_PM_at (no gene symbol),[6],1.72
same,FC 1459235_PM_at (no gene symbol),[6],1.65
same,FC 1459288_PM_at (no gene symbol),[6],1.66
same,FC 1459310_PM_at (no gene symbol),[6],1.87
same,FC 2410089E03Rik 1443422_PM_at,[6],1.55
same,FC 2410089E03Rik (1458493_PM_a_at),[6],2.00
same,FC 4933439F18Rik (1427068_PM_x_at),[6],1.52
same,FC 6330436F06Rik (1433015_PM_at),[6],1.52
same,FC 9330156P08Rik (1458073_PM_at),[6],2.08
same,FC A230006K03Rik (1432408_PM_a_at),[6],1.59
same,FC A730034C02 /// Mtap2 (1421327_PM_at),[6],1.69
same,FC B230112I24Rik (1433187_PM_at),[6],1.64
same,FC BC066028 (1439850_PM_at),[6],1.56
same,FC Cdk14 (1453956_PM_a_at),[6],1.76
same,FC Dnajc27 (1434946_PM_at),[6],1.85
same,FC Dnm3 (1446265_PM_at),[6],1.54
same,FC Fgf14 (1449958_PM_a_at),[6],1.76
same,FC Flnb (1445534_PM_at),[6],1.55
same,FC Gzma (1417898_PM_a_at),[6],−5.32
same,FC Htr2c (1450477_PM_at),[6],1.65
same,FC Kif22 (1423813_PM_at),[6],−1.68
same,FC Per3 (1442243_PM_at),[6],1.54
same,FC Pole (1448650_PM_a_at),[6],−1.60
same,FC Rgs7bp (1437559_PM_at),[6],1.50
same,FC Sema6d (1446536_PM_at),[6],1.57
same,FC Sgol1 (1418919_PM_at),[6],−1.61
same,FC Slc25a27 (1440090_PM_at),[6],1.56
same,FC Zfp398 (1456639_PM_at),[6],1.57
same,FC Aox1 (1419435_PM_at),[7],1.68
same,FC Rnf128 (1418318_PM_at),[7],1.72
same,FC Rnf128 (1449036_PM_at),[7],1.60
same,FC 1446104_PM_at (no gene symbol),[8],1.57
same,FC Gzma (1417898_PM_a_at),[8],−4.64
same,FC Kif22 (1423813_PM_at),[8],−1.62
same,FC 1459289_PM_at (no gene symbol),[9],1.52
same,FC Nr4a2 (1455034_PM_at),[9],−1.51
same,FC 1444901_PM_at (no gene symbol),[10],−1.68
same,FC Cyp4f16 /// Gm9705 (1430172_PM_a_at),[10],1.54
same,FC Nr4a3 (1438796_PM_at),[10],−1.82
"COC(=O)/C=C/C(=O)O [MMF, monomethyl fumarate]",Number of differentially expressed genes identified: Cerebellum,[11],2
same,Number of differentially expressed genes identified: Spinal Cord,[11],7
same,Number of differentially expressed genes identified: Whole blood,[11],19
same,Number of differentially expressed genes identified: Cerebellum,[12],3
same,Number of differentially expressed genes identified: Spinal Cord,[12],2
same,Number of differentially expressed genes identified: Whole blood,[12],7
same,FC Agxt2l1 (1431406_PM_at),[13],1.78
same,FC Cxcl11 (1419697_PM_at),[13],−3.36
same,FC Ddx58 (1436562_PM_at),[13],−1.67
same,FC Ifi44 (1423555_PM_a_at),[13],−1.99
same,FC Ifit1 (1450783_PM_at),[13],−1.67
same,FC Plac8 (1451335_PM_at),[13],−2.04
same,FC Tor3a (1450454_PM_at),[13],−1.57
same,FC 1439946_PM_at (no gene symbol),[14],−1.62
same,FC Dbp (1418174_PM_at),[14],−1.58
same,FC 1459557_PM_at (no gene symbol),"tissue not given, 100MMF-vs-Veh, 7 h",2.30
same,FC 1442025_PM_a_at (no gene symbol),[15],−1.84
same,FC 1442026_PM_at (no gene symbol),[15],−1.91
same,FC 4933423P22Rik (1454223_PM_at),[15],1.53
